Measurements: ChEMBL document CHEMBL6153083, “Synthesis, Structural Modification, and Antismall Cell Lung Cancer Activity of 3-Arylisoquinolines with Dual Inhibitory Activity on Topoisomerase I and II” (J Med Chem, 2025)
The source made the active and inactive calls. The calls are words filed in the database; no cut-off is given here.

Tests used:
[1] = molecular target: T1, DNA topoisomerase 1 (Homo sapiens) (UniProt P11387); test: Inhibition of Topo I (unknown origin) relaxation activity using pBR322 plasmid DNA as substrate at 25 to 100 uM incubated for 30 mins; details: dose 25-100 µM
T1 sequence (whole entry): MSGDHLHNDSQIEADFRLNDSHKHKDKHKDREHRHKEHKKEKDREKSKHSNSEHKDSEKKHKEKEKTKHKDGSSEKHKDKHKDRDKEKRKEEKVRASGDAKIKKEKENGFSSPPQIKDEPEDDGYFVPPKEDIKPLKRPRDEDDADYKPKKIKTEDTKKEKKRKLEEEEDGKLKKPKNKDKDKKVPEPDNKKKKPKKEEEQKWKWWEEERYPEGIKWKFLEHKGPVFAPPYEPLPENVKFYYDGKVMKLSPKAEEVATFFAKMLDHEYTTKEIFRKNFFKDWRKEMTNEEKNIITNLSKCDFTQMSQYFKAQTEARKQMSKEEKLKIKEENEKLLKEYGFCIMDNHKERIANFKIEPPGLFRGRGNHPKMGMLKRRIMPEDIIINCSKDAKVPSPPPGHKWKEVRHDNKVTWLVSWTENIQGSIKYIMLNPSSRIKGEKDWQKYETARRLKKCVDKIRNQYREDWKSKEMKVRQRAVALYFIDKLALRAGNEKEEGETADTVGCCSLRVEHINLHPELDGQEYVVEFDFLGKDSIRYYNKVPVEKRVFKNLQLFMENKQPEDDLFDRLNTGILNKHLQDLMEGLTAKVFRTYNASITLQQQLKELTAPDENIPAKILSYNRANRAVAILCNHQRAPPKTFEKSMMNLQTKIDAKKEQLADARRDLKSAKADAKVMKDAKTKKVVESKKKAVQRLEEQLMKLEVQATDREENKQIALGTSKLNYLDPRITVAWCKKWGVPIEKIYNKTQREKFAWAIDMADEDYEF

NCI-H146 = test: Antiproliferative activity against human NCI-H146 cells incubated for 72 hrs; format: functional, cell-based; details: NCI-H146, 72 h
SHP77 = test: Antiproliferative activity against human SHP77 cells incubated for 72 hrs; format: functional, cell-based; details: SHP77, 72 h
NCI-H1048 [2] = test: Antiproliferative activity against human NCI-H1048 cells incubated for 72 hrs; format: functional, cell-based; details: NCI-H1048, 72 h
NCI-H446 [3] = test: Inhibition of cell proliferation in human NCI-H446 cells incubated for 24 hrs by EdU incorporation assay; format: functional, cell-based; details: dose 0.375-3 µM
NCI-H1048 [4] = test: Inhibition of cell migration in human NCI-H1048 cells incubated for 24 hrs by transwell assay; format: functional, cell-based; details: dose 0.375-3 µM
NCI-H446 [5] = test: Inhibition of cell migration in human NCI-H446 cells incubated for 24 hrs by wound-healing assay; format: functional, cell-based; details: dose 0.375-3 µM
NCI-H1048 [6] = test: Induction of apoptosis in human NCI-H1048 cells assessed as reduction in cell viability incubated for 48 hrs by Geimsa staining based analysis; format: functional
NCI-H1048 [7] = test: Induction of early apoptosis in human NCI-H1048 cells incubated for 48 hrs by Annexin V-FITC/PI staining based flow cytometry; format: functional, cell-based; details: dose 1-8 µM
NCI-H446 [8] = test: Induction of mitochondrial membrane permeability in human NCI-H446 cells assessed as increase in cytochrome C release at 1 to 8 uM incubated for 48 hrs by Western blot analysis; format: functional, cell-based; details: dose 1-8 µM
NCI-H1048 [9] = test: Induction of apoptosis in human NCI-H1048 cells assessed as increase in cleaved caspase-3 level incubated for 48 hrs by Western blot analysis; format: functional, cell-based
NCI-H1048 [10] = test: Induction of apoptosis in human NCI-H1048 cells assessed as increase in cleaved caspase-9 level incubated for 48 hrs by Western blot analysis; format: functional, cell-based
NCI-H1048 [11] = test: Induction of mitochondrial membrane permeability in human NCI-H1048 cells assessed as increase in cytochrome C release at 1 to 8 uM incubated for 48 hrs by Western blot analysis; format: functional, cell-based; details: dose 1-8 µM
[12] = Inhibition of PI3K/AKT/mTOR signalling pathway in human NCI-H1048 cells assessed as decrease in PI3K phosphorylation at 1 to 8 uM incubated for 48 hrs by Western blot analysis; format: cell-based; details: dose 1-8 µM
[13] = Inhibition of PI3K/AKT/mTOR signalling pathway in human NCI-H1048 cells assessed as decrease in AKT level at 1 to 8 uM incubated for 48 hrs by Western blot analysis; format: cell-based; details: dose 1-8 µM
[14] = Inhibition of PI3K/AKT/mTOR signalling pathway in human NCI-H1048 cells assessed as decrease in mTOR level at 1 to 8 uM incubated for 48 hrs by Western blot analysis; format: cell-based; details: dose 1-8 µM
[15] = Inhibition of PI3K/AKT/mTOR signalling pathway in human NCI-H446 cells assessed as decrease in AKT level at 1 to 8 uM incubated for 48 hrs by Western blot analysis; format: cell-based; details: dose 1-8 µM
[16] = MRT (0 to infinity) in Sprague-Dawley rat at 10 mg/kg, ip measured after 24 hrs by LC-MS/MS analysis; format: ADME, organism-based; details: in vivo
NCI-H446 [17] = test: Antitumor activity against human NCI-H446 cells xenografted in BALB/c nude mouse at 20 mg/kg, ip for 21 days relative to control; format: functional; details: NCI-H446, 504 h, time 21 day, read-out: TGI
NCI-H446 [18] = test: Antitumor activity against human NCI-H446 cells xenografted in BALB/c nude mouse assessed as decrease in tumor volume at 10 to 20 mg/kg, ip for 21 days; format: functional, organism-based; details: dose 10-20 mg/kg, time 21.0 day
[19] = Toxicity in BALB/c nude mouse xenografted with human NCI-H446 cells assessed as deleterious effect in kidney at 10 to 20 mg/kg, ip for 21 days by H and E staining based analysis; format: organism-based; details: in vivo, 504 h, dose 10-20 mg/kg, time 21 day
NCI-H446 [20] = test: Induction of apoptosis in human NCI-H446 cells assessed as formation of cellular fragments at 1 to 8 uM incubated for 48 hrs by Annexin V-FITC/PI staining based flow cytometry; format: functional, cell-based; details: dose 1-8 µM
NCI-H1048 [21] = test: Induction of apoptosis in human NCI-H1048 cells at 1.75 to 14 uM incubated for 48 hrs by Annexin V-FITC/PI staining based flow cytometry; format: functional, cell-based; details: dose 1.75-14 µM
NCI-H1048 [22] = test: Induction of mitochondrial dysfunction in human NCI-H1048 cells assessed as increase in ROS level at 1.75 to 14 uM incubated for 48 hrs by DCFH-DA staining based flow cytometry; format: functional, cell-based; details: dose 1.75-14 µM
NCI-H1048 [23] = test: Induction of mitochondrial membrane permeability in human NCI-H1048 cells assessed as increase in cytochrome C release at 1.75 to 14 uM incubated for 48 hrs by Western blot analysis; format: functional, cell-based; details: dose 1.75-14 µM
[24] = Inhibition of PI3K/AKT/mTOR signalling pathway in human NCI-H1048 cells assessed as decrease in PI3K phosphorylation at 1.75 to 14 uM incubated for 48 hrs by Western blot analysis; format: cell-based; details: dose 1.75-14 µM
[25] = Inhibition of PI3K/AKT/mTOR signalling pathway in human NCI-H1048 cells assessed as decrease in AKT level at 1.75 to 14 uM incubated for 48 hrs by Western blot analysis; format: cell-based; details: dose 1.75-14 µM
[26] = Inhibition of PI3K/AKT/mTOR signalling pathway in human NCI-H1048 cells assessed as decrease in mTOR level at 1.75 to 14 uM incubated for 48 hrs by Western blot analysis; format: cell-based; details: dose 1.75-14 µM

CC1CC(C)CN(Cc2cc3c(cc2-c2cc4ccc5c(c4cn2)OCO5)OCO3)C1 (stereo not drawn)
inhibition [1]: Active
IC50 (NCI-H146): 22.8 µM
IC50 (SHP77): 7.92 µM
IC50 (NCI-H1048 [2]): 1.42 µM
inhibition (NCI-H446 [3]): Dose-dependent-effect; Exhibited Similar Inhibitory Effect To That Of Etoposide At Same Concentration
inhibition (NCI-H1048 [4]): Dose-dependent-effect; Displayed Stronger Inhibitory Effect Than Etoposide
inhibition (NCI-H446 [5]): Dose-dependent-effect; Exhibited Superior Inhibitory Effect Compared To Etoposide At Same Concentration
Activity (NCI-H1048 [6]): Dose-dependent-effect
Activity (NCI-H1048 [7]): Dose-dependent-effect; Exhibited Stronger Effect Than Etoposide
Activity (NCI-H446 [8]): Active
Activity (NCI-H1048 [9]): Dose-dependent-effect
Activity (NCI-H1048 [10]): Dose-dependent-effect
Activity (NCI-H1048 [11]): Active
inhibition [12]: Active; Pronounced Effect Was Observed In Human Nci-H1048 Cells Than In Human Nci-H446 Cells
inhibition [13]: Active
inhibition [14]: Active
inhibition [15]: Active
MRT inf [16]: 5.19 h
inhibition in vivo at 20 mg/kg (NCI-H446 [17]): 82.2%
Activity (NCI-H446 [18]): Active; Exhibited Markedly Slow Growth Rate
Activity [19]: Non-toxic

CCC1CCCC(C)N1Cc1cc2c(cc1-c1cc3ccc4c(c3cn1)OCO4)OCO2 (stereo not drawn)
inhibition [1]: Active
IC50 (NCI-H146): 6.23 µM
IC50 (SHP77): 8.01 µM
IC50 (NCI-H1048 [2]): 2.45 µM
inhibition (NCI-H446 [3]): Dose-dependent-effect; Exhibited Similar Inhibitory Effect To That Of Etoposide At Same Concentration
inhibition (NCI-H1048 [4]): Dose-dependent-effect
inhibition (NCI-H446 [5]): Dose-dependent-effect
Activity (NCI-H1048 [6]): Dose-dependent-effect
Activity (NCI-H446 [20]): Active; Activity Similar To Etoposide
Activity (NCI-H1048 [21]): Active; Less Effective Than Etoposide
Activity (NCI-H1048 [22]): Active
Activity (NCI-H1048 [9]): Dose-dependent-effect
Activity (NCI-H1048 [10]): Dose-dependent-effect
Activity (NCI-H1048 [23]): Active
inhibition [15]: Active
inhibition [24]: Active
inhibition [25]: Active
inhibition [26]: Active
MRT inf [16]: 6.14 h
inhibition in vivo at 20 mg/kg (NCI-H446 [17]): 85.5%
Activity (NCI-H446 [18]): Active; Exhibited Markedly Slow Growth Rate
Activity [19]: Non-toxic
